Holding throughout (type): cell-based
For assay [1], the system named is Ba/F3 cells expressing EGFR-wt. In words: Growth inhibition (GI50) of Ba/F3 cells expressing EGFR-wt, Celltiter glo. As to conditions: Mus musculus, BaF3, 72 h. The gist of the method: (§1)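 Viability read by CellTiter-Glo after 72 h compound exposure (37 °C, 5% CO2) of variant-expressing Ba/F3 cells plated at 100,000 cells/ml. Dosing 4 h post-seeding; 10-pt 4-fold series from 2 mM stock; 0.5% DMSO. GI50 = molar concentration (μM) giving half-maximal growth inhibition.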
For orientation: Cellular ATP, detected with luciferase, serves as a proxy for viable cell number.

Assay [2] has as its system Ba/F3 cells expressing del19/T790M/C797S (EGFR-DTC). In words: Growth inhibition (GI50) of Ba/F3 cells expressing del19/T790M/C797S (EGFR-DTC), Celltiter glo. As to conditions: Mus musculus, BaF3, 72 h. The gist of the method: as §1
Assay [3] concerns Ba/F3 cells expressing L858R/T790M/C797S (EGFR-LTC). In words: Growth inhibition (GI50) of Ba/F3 cells expressing L858R/T790M/C797S (EGFR-LTC), Celltiter glo. As to conditions: Mus musculus, BaF3, 72 h. In a few lines:
as §1

For assay [4], the system named is Ba/F3 cells expressing del19/T790M (EGFR-DT). In words: Growth inhibition (GI50) of Ba/F3 cells expressing del19/T790M (EGFR-DT), Celltiter glo. As to conditions: Mus musculus, BaF3, 72 h. The gist of the method:
as §1

Assay [5] concerns Ba/F3 cells expressing L858R/T790M (EGFR-LT). In words: Growth inhibition (GI50) of Ba/F3 cells expressing L858R/T790M (EGFR-LT), Celltiter glo. As to conditions: Mus musculus, BaF3, 72 h. The gist of the method: as §1
The next assay relates to parental Ba/F3 cell line. In words: Growth inhibition (GI50) of the parental Ba/F3 cell line (not introduced with EGFR variants), Celltiter glo. As to conditions: Mus musculus, BaF3, 72 h, parental Ba/F3 cells. The gist of the method: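 Viable cell count by CellTiter-Glo after 72 h at 37 °C gave GI50 values (μM, 50% growth inhibition). Cells lacking EGFR variants were seeded at 100,000 cells/ml and dosed 4 h later with 4-fold serial dilutions from a 2 mM stock, 0.5% DMSO.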

Experimental findings from US20240228458A1, “PYRIMIDINE DERIVATIVE HAVING PROTEIN KINASE INHIBITORY ACTIVITY, AND THERAPEUTIC PHARMACEUTICAL COMPOSITION COMPRISING SAME” (THERAPEX CO., LTD., priority 2021, published 2024) are described below.

As usually defined, the GI50 is the concentration at which growth is held to half of that of the control. Consider `Cc1cc(Nc2ncc(Br)c(Nc3ccccc3N=S(C)(C)=O)n2)c(Cl)cc1N1CCC(N2CCN(C)CC2)CC1` [Example 144], for which the GI50 in assay [1] was 500 to 2000 nM; in assay [2], 500 to 2000 nM; in assay [3], 100 to 500 nM; in assay [4] it was 500 to 2000 nM; in assay [5], 100 to 500 nM; with parental Ba/F3 cell line, 500 to 2000 nM.
Regarding `COc1cc(N2CCC(N3CCC(C(F)(F)F)CC3)CC2)c(C)cc1Nc1ncc(Br)c(Nc2ccc(F)cc2NS(C)(=O)=O)n1` [Example 148, N-(2-((5-bromo-2-((2-methoxy-5-methyl-4-(4-(trifluoromethyl)-[1,4′-bipiperidin]-1′-yl)phenyl)amino)pyrimidin-4-yl)amino)-5-fluorophenyl)methanesulfonamide], the GI50 lay in the range of 500 to 2000 nM in assay [1]; 100 to 500 nM in assay [2]; 100 to 500 nM in assay [3]; 100 to 500 nM in assay [4]; 500 to 2000 nM in assay [5]; 500 to 2000 nM with parental Ba/F3 cell line.
For the compound `COc1cc(N2CCC(N3CCCC(N(C)C)C3)CC2)c(Cl)cc1Nc1ncc(Br)c(Nc2ccc(F)cc2NS(C)(=O)=O)n1` (stereo not drawn) [Example 149, N-(2-((5-bromo-2-((5-chloro-4-(3-(dimethylamino)-[1,4′-bipiperidin]-1′-yl)-2-methoxyphenyl)amino)pyrimidin-4-yl)amino)-5-fluorophenyl)methanesulfonamide], the GI50 fell in the range of 100 to 500 nM in assay [1]; 100 to 500 nM in assay [2]; 25 to 100 nM in assay [3]; 100 to 500 nM in assay [4]; 100 to 500 nM in assay [5]; 100 to 500 nM in the assay on parental Ba/F3 cell line.
Consider `COc1cc(N2CCC(N3CCN(C)CC3)CC2)c(C)cc1Nc1nnc(Cl)c(Nc2cc(Cl)ccc2NS(C)(=O)=O)n1` [Example 152, N-(4-chloro-2-((6-chloro-3-((-2-methoxy-5-methyl-4-(4-(4-methylpiperazin-1-yl)piperidin-1-yl)phenyl)amino)-1,2,4-triazin-5-yl)amino)phenyl)methanesulfonamide], for which the GI50 lay within 100 to 500 nM in assay [1]; 1 to 25 nM in assay [2]; 1 to 25 nM in assay [3]; 1 to 25 nM in assay [4]; 1 to 25 nM in assay [5]; 500 to 2000 nM with parental Ba/F3 cell line.
With `COc1cc(N2CCC(N3CCN(C)CC3)CC2)c(C)cc1Nc1ncc(Cl)c(Nc2cc(Cl)ccc2P(C)(C)=O)n1` [Example 153, (4-chloro-2-((5-chloro-2-((2-methoxy-5-methyl-4-(4-(4-methylpiperazin-1-yl)piperidin-1-yl)phenyl)amino)pyrimidin-4-yl)amino)phenyl)dimethylphosphine oxide], the GI50 in assay [1] is 500 to 2000 nM; in assay [2], 100 to 500 nM; in assay [3] it was 100 to 500 nM; in assay [4], 100 to 500 nM; in assay [5], 500 to 2000 nM; with parental Ba/F3 cell line, 2000 to 10000 nM.
In the case of `Cc1cc(Nc2ncc(Cl)c(Nc3cc(Cl)ccc3P(C)(C)=O)n2)c(Cl)cc1N1CCC(N2CCN(C)CC2)CC1` [Example 154, (4-chloro-2-((5-chloro-2-((2-chloro-5-methyl-4-(4-(4-methylpiperazin-1-yl)piperidin-1-yl)phenyl)amino)pyrimidin-4-yl)amino)phenyl)dimethylphosphine oxide], the GI50 in assay [1] is 2000 to 10000 nM; in assay [2], 100 to 500 nM; in assay [3], 500 to 2000 nM; in assay [4], 500 to 2000 nM; in assay [5] it was 2000 to 10000 nM; in the assay with parental Ba/F3 cell line, 2000 to 10000 nM.
For the compound `COc1cc(N2CCC(N3CCN(C)CC3)CC2)c(C)cc1Nc1ncc(Br)c(Nc2cc(Cl)ccc2N(C)S(C)(=O)=O)n1` [Example 155, N-(2-((5-bromo-2-((2-methoxy-5-methyl-4-(4-(4-methylpiperazin-1-yl)piperidin-1-yl)phenyl)amino)pyrimidin-4-yl)amino)-4-chlorophenyl)-N-methylmethanesulfonamide], the concentration for 50% growth inhibition (GI50) lay in the range of 25 to 100 nM in assay [1]; 1 to 25 nM in assay [2]; 1 to 25 nM in assay [3]; 1 to 25 nM in assay [4]; 25 to 100 nM in assay [5]; 100 to 500 nM with parental Ba/F3 cell line.
Consider `COc1cc(N2CCC(N3CCN(C)CC3)CC2)c(Cl)cc1Nc1ncc(Br)c(Nc2cc(Cl)ccc2N(C)S(C)(=O)=O)n1` [Example 156, N-(2-((5-bromo-2-((5-chloro-2-methoxy-4-(4-(4-methylpiperazin-1-yl)piperidin-1-yl)phenyl)amino)pyrimidin-4-yl)amino)-4-chlorophenyl)-N-methylmethanesulfonamide], for which the GI50 fell in the range of 1 to 25 nM in assay [1]; 1 to 25 nM in assay [2]; 1 to 25 nM in assay [3]; 1 to 25 nM in assay [4]; 1 to 25 nM in assay [5]; 100 to 500 nM with parental Ba/F3 cell line.
For `Cc1cc(Nc2ncc(Cl)c(Nc3cc(Cl)ccc3NS(C)(=O)=O)n2)c(Cl)cc1N1CCC(N2CCC(N(C)C)C2)CC1` (stereo not drawn) [Example 157, N-(4-chloro-2-((5-chloro-2-((2-chloro-4-(4-(3-(dimethylamino)pyrrolidin-1-yl)piperidin-1-yl)-5-methylphenyl)amino)pyrimidin-4-yl)amino)phenyl)methanesulfonamide], the GI50 lay within 100 to 500 nM in assay [1]; 100 to 500 nM in assay [2]; 25 to 100 nM in assay [3]; 25 to 100 nM in assay [4]; 25 to 100 nM in assay [5]; 500 to 2000 nM in the assay with parental Ba/F3 cell line.
As for `Cc1cc(Nc2ncc(Cl)c(Nc3cc(Cl)ccc3NS(C)(=O)=O)n2)c(Cl)cc1N1CCC(N2CCN(C)CC2)CC1` [Example 158, N-(4-chloro-2-((5-chloro-2-((2-chloro-5-methyl-4-(4-(4-methylpiperazin-1-yl)piperidin-1-yl)phenyl)amino)pyrimidin-4-yl)amino)phenyl)methanesulfonamide], the GI50 in assay [1] fell in the range of 500 to 2000 nM; in assay [2], 1 to 25 nM; in assay [3], 1 to 25 nM; in assay [4], 25 to 100 nM; in assay [5], 25 to 100 nM; in the assay with parental Ba/F3 cell line, 2000 to 10000 nM.
With `COc1cc(N2CCC(N3CCN(C)CC3)CC2)c(C)cc1Nc1ncc(Cl)c(Nc2cc(C(C)C)ccc2NS(C)(=O)=O)n1` [Example 160, N-(2-((5-chloro-2-((2-methoxy-5-methyl-4-(4-(4-methylpiperazin-1-yl)piperidin-1-yl)phenyl)amino)pyrimidin-4-yl)amino)-4-isopropylphenyl)methanesulfonamide], the GI50 in assay [1] lay in the range of 500 to 2000 nM; in assay [2], 25 to 100 nM; in assay [3], 100 to 500 nM; in assay [4], 100 to 500 nM; in assay [5] it was 100 to 500 nM; in the assay on parental Ba/F3 cell line it was 2000 to 10000 nM.
On to `COc1cc(N2CCC(N3CCN(C)CC3)CC2)c(Cl)cc1Nc1ncc(Cl)c(Nc2cc(C(C)C)ccc2NS(C)(=O)=O)n1` [Example 161, N-(2-((5-chloro-2-((5-chloro-2-methoxy-4-(4-(4-methylpiperazin-1-yl)piperidin-1-yl)phenyl)amino)pyrimidin-4-yl)amino)-4-isopropylphenyl)methanesulfonamide], for which the concentration for 50% growth inhibition (GI50) in assay [1] is 2000 to 10000 nM; in assay [2], 100 to 500 nM; in assay [3], 500 to 2000 nM; in assay [4], 100 to 500 nM; in assay [5], 500 to 2000 nM; in the assay on parental Ba/F3 cell line, 2000 to 10000 nM.
In the case of `Cc1cc(Nc2ncc(Cl)c(Nc3cc(Cl)ccc3NS(C)(=O)=O)n2)c(Cl)cc1N1CCC(N2CCCN(C)CC2)CC1` [Example 162, N-(4-chloro-2-((5-chloro-2-((2-chloro-5-methyl-4-(4-(4-methyl-1,4-diazepan-1-yl)piperidin-1-yl)phenyl)amino)pyrimidin-4-yl)amino)phenyl)methanesulfonamide], the GI50 in assay [1] is 500 to 2000 nM; in assay [2], 100 to 500 nM; in assay [3], 2000 to 10000 nM; in assay [4], 2000 to 10000 nM; in assay [5] it was 2000 to 10000 nM; in the assay with parental Ba/F3 cell line it was 2000 to 10000 nM.
In the case of `COc1cc(N2CCC(N3CCCN(C)CC3)CC2)c(Cl)cc1Nc1ncc(Cl)c(Nc2cc(Cl)ccc2NS(C)(=O)=O)n1` [Example 163, N-(4-chloro-2-((5-chloro-2-((5-chloro-2-methoxy-4-(4-(4-methyl-1,4-diazepan-1-yl)piperidin-1-yl)phenyl)amino)pyrimidin-4-yl)amino)phenyl)methanesulfonamide], the GI50 in assay [1] is 2000 to 10000 nM; in assay [2] it was 100 to 500 nM; in assay [3] it was 2000 to 10000 nM; in assay [4], 2000 to 10000 nM; in assay [5], 2000 to 10000 nM; in the assay on parental Ba/F3 cell line, over 10000 nM.
`COc1cc(N2CCC(N3CCN(C)CC3)CC2)c(C)cc1Nc1nnc(Cl)c(Nc2ccc(F)cc2NS(C)(=O)=O)n1` [Example 164, N-(2-((6-chloro-3-((2-methoxy-5-methyl-4-(4-(4-methylpiperazin-1-yl)piperidin-1-yl)phenyl)amino)-1,2,4-triazin-5-yl)amino)-5-fluorophenyl)methanesulfonamide]: the GI50 in assay [1] was 2000 to 10000 nM; in assay [2] it was 100 to 500 nM; in assay [3], 2000 to 10000 nM; in assay [4], 2000 to 10000 nM; in assay [5], 2000 to 10000 nM; with parental Ba/F3 cell line, over 10000 nM.
